Among the data in patent US12729192B2, “CDK9 inhibitor and use thereof” (PHARMABLOCK SCIENCES (NANJING), INC., priority 2020, dated 2026) are IC50 values, retold here.

Like-named read-outs stand apart in the source and are kept apart here. Some results are limits rather than exact numbers.

Test [1] has as its target T1, CDK2 (Homo sapiens, UniProt P24941).
T1 construct: purchased Carna Biosciences, Inc
Briefly: CDK2 kinase activity inhibition (ADP-Glo). It counts as biochemical. The settings on record: 10 μM ATP, 2 h at room temperature. On the procedure:
(§1) CDK9 kinase was manufactured by the company or commercially available. CDK1, CDK2 and CDK7 were purchased from Carna Biosciences, Inc. ADP-Glo™ kit was purchased from Promega Corporation. Dithiothreitol (DTT), Tween-20, dimethylsulfoxide (DMSO), bovine serum albumin (BSA) and Tris base were obtained from Sigma at the available highest level of purity.
(§2) General procedures for CDK inhibition determination: The determination was performed in a buffer consisting of 50 μM DTT, 0.1% BSA, 40 mM Tris-HCl pH=7.5 and 20 mM MgCl2. The compound dissolved in DMSO and CDK enzymes were diluted with the buffer. 1 μL of the compound solution in 5% DMSO and 2 μL of the CDK enzyme solution were added to a white low-volume 384-well microtiter plate and incubated for 20 min at room temperature. Ultra pure ATP and the substrate polypeptide (purchased from GenScript Biotech Corporation) were diluted together into the buffer and added to a mixed solution of the compound and the enzyme, 2 μL per well. They were incubated for 2 h at room temperature.
(§3) After the reaction was completed, 5 μL of ADP-Glo™ reagent was added to each well and incubated for 40 min at room temperature, and then 10 μL of test reagent was added to each well and incubated for 30 mi at room temperature. Chemical luminescence values were measured by using a Tecan (Männedorf, Switzerland) multifunctional plate reader Spark for plate reading. The IC50 value of the inhibitor was obtained by fitting the chemical luminescence intensity ratio in the S-shaped dosage reaction curve using Prism 7 (La Jolla, 15 CA) relative to the concentration of the inhibitor.
Background: ADP-Glo turns the ADP formed in a reaction into a luminescent signal.

Test [2] addresses T2, CDK7 (Homo sapiens, UniProt P50613).
T2 construct: purchased Carna Biosciences, Inc
Briefly: CDK7 kinase activity inhibition (ADP-Glo). It counts as biochemical. The settings on record: 10 μM ATP, 2 h at room temperature. On the procedure:
as §1, §2, §3

For test [3], the system named is MOLM-13 cells. Kind of test: Tumor cell proliferation inhibition experiment (CellTiter-Glo). The settings on record: Homo sapiens, read-out: MOLM-13 (nM) IC50, cell proliferation inhibition. It counts as cell-based. An excerpt: An acute myeloid leukemia (AML) cell line (MOLM-13) was purchased from NANJING COBIOER BIOSCIENCES CO., LTD. An RPMI1640 medium and a penicillin-streptomycin double-antibody were purchased from ThermoFisher (Waltham, MA, USA). Certified fetal bovine serum (FBS) was purchased from Biological Industries (Israel). A Corning 384-well cell culture plate was purchased from CORNING (USA). Cell-Titer Glo® was purchased from Promega Corporation (Madison, WI, USA).
To evaluate the ability of the synthetic compound to inhibit the proliferation of MOLM-13 cells, MOLM-13 cells at an exponential growth stage were inoculated at a density of 500,000 cell/mL in the RPMI1640 medium containing 20% bovine serum and 1% penicillin-streptomycin double-antibody, and the 384-well plate contained 20 μL per well and placed overnight in an 37° C., 5% CO2 incubator. Compound powder was dissolved in DMSO to prepare a storage mother liquor with a concentration of 2 mM, and 12 dilutions with three-fold gradient concentrations were further prepared. 1 μL of gradient-diluted DMSO solution was added to 99 μL of cell culture medium (the final maximum concentration of the compound in the assay was 10 uM and the final concentration of DMSO was 0.5%). 20 μL of compound solution in the medium was added at gradients to each cell-coated test well of the 384-well plate. After the compound solution was added, the 384-well plate was incubated for 16 h in a 37° C., 5% CO2 incubator. Cell viability was determined by quantifying ATPs present in test wells using the CellTiter-Glo kit from Promega (Madison, WI, USA). After 20 minutes of incubation, readings were obtained under a chemical luminescence procedure using Tecan's Spark multifunctional plate reader. The concentration (IC50 value) of the compound at which the cell survival rate was inhibited by 50% was determined using an S-shaped dosage response model (variable slope, four parameters) in Prism 7 (LaJolla, CA).

The target of test [4] is T3, CDK1 (Homo sapiens, UniProt P06493).
T3 construct: purchased Carna Biosciences, Inc
T3 sequence (P06493 whole entry): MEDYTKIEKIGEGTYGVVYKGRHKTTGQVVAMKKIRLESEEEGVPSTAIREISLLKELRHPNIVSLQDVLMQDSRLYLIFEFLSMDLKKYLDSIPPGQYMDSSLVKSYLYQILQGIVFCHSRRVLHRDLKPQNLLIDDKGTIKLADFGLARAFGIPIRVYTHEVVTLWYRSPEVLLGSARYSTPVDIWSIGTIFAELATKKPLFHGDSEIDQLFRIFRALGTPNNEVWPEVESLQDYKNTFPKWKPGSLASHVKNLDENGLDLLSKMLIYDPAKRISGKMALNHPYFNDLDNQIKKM
T3 sequence (P14635 whole entry partner): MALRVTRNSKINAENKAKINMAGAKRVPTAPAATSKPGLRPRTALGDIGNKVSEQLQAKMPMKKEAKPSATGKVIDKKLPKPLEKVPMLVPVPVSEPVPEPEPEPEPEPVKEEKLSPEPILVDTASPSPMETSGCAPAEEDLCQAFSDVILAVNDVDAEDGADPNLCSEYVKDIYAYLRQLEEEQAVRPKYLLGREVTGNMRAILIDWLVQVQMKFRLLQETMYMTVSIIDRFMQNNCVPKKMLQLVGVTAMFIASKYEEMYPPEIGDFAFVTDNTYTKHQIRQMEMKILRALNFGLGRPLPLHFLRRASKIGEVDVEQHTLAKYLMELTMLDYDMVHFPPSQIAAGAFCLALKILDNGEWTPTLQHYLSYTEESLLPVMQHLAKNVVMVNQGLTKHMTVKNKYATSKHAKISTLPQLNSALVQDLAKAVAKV
Briefly: CDK1 kinase activity inhibition (ADP-Glo). It counts as biochemical. The settings on record: 50 μM ATP, 2 h at room temperature. As for the experimental part:
as §1, §2, §3

Test [5] deals with CDK9 (Homo sapiens, UniProt P50750). Kind of test: CDK9 kinase activity inhibition (ADP-Glo). It counts as biochemical. The settings on record: 10 μM ATP, 2 h at room temperature. As for the experimental part:
as §1, §2, §3

The mark [6] stands for this setting: acute myeloid leukemia cell line MOLM-13, 16 h incubation, CellTiter-Glo.

Chain of CDK9 (P50750 whole entry): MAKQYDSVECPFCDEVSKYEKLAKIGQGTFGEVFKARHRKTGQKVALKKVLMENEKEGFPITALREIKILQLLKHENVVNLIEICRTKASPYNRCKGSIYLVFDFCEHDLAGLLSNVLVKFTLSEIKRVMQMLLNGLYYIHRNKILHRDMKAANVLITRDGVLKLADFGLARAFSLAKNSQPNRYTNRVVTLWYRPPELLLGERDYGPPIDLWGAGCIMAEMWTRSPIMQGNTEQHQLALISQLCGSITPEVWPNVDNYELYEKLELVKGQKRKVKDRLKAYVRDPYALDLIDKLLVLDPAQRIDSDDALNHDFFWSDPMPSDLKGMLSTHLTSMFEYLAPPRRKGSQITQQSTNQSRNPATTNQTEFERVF
Chain of CDK9 (O60563 whole entry partner): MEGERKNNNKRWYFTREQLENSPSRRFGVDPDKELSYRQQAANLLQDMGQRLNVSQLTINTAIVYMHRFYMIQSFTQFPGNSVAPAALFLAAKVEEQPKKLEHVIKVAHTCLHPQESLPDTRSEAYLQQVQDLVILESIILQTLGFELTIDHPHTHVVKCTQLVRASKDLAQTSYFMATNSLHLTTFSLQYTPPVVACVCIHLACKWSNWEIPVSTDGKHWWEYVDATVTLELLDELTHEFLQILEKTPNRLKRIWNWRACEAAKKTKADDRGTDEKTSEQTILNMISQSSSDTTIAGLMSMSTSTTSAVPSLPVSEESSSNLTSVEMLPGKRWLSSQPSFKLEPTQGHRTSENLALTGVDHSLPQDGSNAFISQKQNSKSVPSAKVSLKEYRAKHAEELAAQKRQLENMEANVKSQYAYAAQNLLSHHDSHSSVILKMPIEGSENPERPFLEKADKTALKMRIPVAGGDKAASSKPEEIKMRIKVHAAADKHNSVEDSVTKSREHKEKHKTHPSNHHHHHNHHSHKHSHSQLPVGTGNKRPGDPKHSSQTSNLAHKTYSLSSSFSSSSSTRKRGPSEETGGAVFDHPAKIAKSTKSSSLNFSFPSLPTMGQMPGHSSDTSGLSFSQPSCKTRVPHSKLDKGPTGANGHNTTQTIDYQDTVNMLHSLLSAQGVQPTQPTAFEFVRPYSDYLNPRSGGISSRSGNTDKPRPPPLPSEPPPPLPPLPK
T2 sequence (P50613 whole entry): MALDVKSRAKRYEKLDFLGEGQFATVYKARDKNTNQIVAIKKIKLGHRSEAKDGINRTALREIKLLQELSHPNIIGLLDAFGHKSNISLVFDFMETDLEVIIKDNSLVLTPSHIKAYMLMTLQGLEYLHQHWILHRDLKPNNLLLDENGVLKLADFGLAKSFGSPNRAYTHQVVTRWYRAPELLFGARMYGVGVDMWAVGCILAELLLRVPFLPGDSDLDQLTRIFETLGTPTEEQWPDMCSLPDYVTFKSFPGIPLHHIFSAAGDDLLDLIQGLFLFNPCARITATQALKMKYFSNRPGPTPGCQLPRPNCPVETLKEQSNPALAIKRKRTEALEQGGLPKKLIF
T2 sequence (P51946 whole entry partner): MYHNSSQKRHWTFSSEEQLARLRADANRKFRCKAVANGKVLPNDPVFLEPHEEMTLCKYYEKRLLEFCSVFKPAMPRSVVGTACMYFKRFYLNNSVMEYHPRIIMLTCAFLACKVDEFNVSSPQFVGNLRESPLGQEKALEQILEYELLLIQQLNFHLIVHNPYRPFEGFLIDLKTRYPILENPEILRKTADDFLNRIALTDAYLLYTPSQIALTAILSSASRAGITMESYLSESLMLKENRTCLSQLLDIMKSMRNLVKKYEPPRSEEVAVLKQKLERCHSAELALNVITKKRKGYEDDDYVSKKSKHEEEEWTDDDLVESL
T2 sequence (P51948 whole entry partner): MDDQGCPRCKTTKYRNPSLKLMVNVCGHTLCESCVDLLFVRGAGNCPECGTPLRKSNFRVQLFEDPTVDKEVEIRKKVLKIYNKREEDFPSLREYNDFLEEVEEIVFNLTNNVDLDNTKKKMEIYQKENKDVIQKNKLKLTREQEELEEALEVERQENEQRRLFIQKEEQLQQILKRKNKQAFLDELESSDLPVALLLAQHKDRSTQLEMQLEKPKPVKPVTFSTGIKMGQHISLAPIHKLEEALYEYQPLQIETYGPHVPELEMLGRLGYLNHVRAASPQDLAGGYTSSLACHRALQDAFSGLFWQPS

For the compound `CC(=O)N[C@@H]1CCC[C@H](C(=O)Nc2cc(-c3cnn4c3CC(C)(C)C4)c(Cl)cn2)C1` [AZD4573, reference compound], the IC50 in test [1] was found to be 18.6 nM; in test [2], 31.4 nM; in test [3] (setting [6]), 17.1 nM; in test [4], 8.3 nM.

Regarding `COc1cc(F)ccc1-c1cc(Nc2cc(CS(C)(=N)=O)ccn2)ncc1F` (centres unmarked) [BAY1251152, reference compound], the IC50 worked out at 811 nM in test [1], 4290 nM in test [2], 118 nM in test [3] (setting [6]) and 570 nM in test [4].

On to `CC(=O)NC[C@H]1CCC(F)(F)CN1C(=O)c1nc(Nc2cc(C#N)ccn2)ccc1C` [Compound 1, (R)—N-((1-(6-((4-cyanopyridin-2-yl)amino)-3-methylpyridine-2-carbonyl)-5,5-difluoropiperidin-2-yl)methyl)acetamide], for which the IC50 in test [5] came to 4.9 nM; in test [1], 36.7 nM; in test [2], 1950 nM; in test [3] (setting [6]), 24.8 nM.

On to `CC(=O)NC[C@H]1CCC(F)(F)CN1C(=O)c1nc(Nc2cc(OC(F)(F)F)ccn2)ccc1C` [Compound 5, (R)—N-((5,5-difluoro-1-(3-methyl-6-((4-(trifluoromethoxy)pyridin-2-yl)amino)pyridine-2-carbonyl)piperidin-2-yl)methyl)acetamide], for which the IC50 turned out to be 5.8 nM in test [5]; 217 nM in test [1]; 2600 nM in test [2]; 27.9 nM in test [3] (setting [6]); 350 nM in test [4].

As to `CC(=O)NC[C@H]1CCC(F)(F)CN1C(=O)c1nc(Nc2cc(OC(F)F)ccn2)ccc1C` [Compound 11, (R)—N-((1-(6-((4-(difluoromethoxy)pyridin-2-yl)amino)-3-methylpyridine-2-carbonyl)-5,5-difluoropiperidin-2-yl)methyl)acetamide], the IC50 in test [5] stood at 5.1 nM; in test [1], 368 nM; in test [2] it was 4350 nM; in test [3] (setting [6]), 45.3 nM; in test [4] it was 755 nM.

Consider `CC(=O)NC[C@H]1CCC(F)(F)CN1C(=O)c1nc(Nc2cc([N+](=O)[O-])ccn2)ccc1C` [Compound 19, (R)—N-((5,5-difluoro-1-(3-methyl-6-((4-nitropyridin-2-yl)amino)pyridine-2-carbonyl)piperidin-2-yl)methyl)acetamide], for which the IC50 in test [5] was determined as 9 nM; in test [1] it was 48.7 nM; in test [2], 7780 nM; in test [3] (setting [6]), 24.2 nM; in test [4], 106 nM.

Turning to `CC(=O)NC[C@H]1CCC(F)(F)CN1C(=O)c1nc(Nc2cc(Cl)ccn2)ccc1C` [Compound 24, (R)—N-((1-(6-((4-chloropyridin-2-yl)amino)-3-methylpyridine-2-carbonyl)-5,5-difluoropiperidin-2-yl)methyl)acetamide], the IC50 was 7.1 nM in test [5]; 408 nM in test [1]; 8760 nM in test [2]; 70.9 nM in test [3] (setting [6]); greater than 10000 nM in test [4].

In the case of `CC(=O)NC[C@H]1CCC(F)(F)CN1C(=O)c1nc(Nc2cc(C(F)F)ccn2)ccc1C` [Compound 27, (R)—N-((1-(6-((4-(difluoromethyl)pyridin-2-yl)amino)-3-methylpyridine-2-carbonyl)-5,5-difluoropiperidin-2-yl)methyl)acetamide], the IC50 turned out to be 5.8 nM in test [5]; 144 nM in test [1]; 4570 nM in test [2]; 22.1 nM in test [3] (setting [6]); 426 nM in test [4].

As to `CC(=O)NC[C@H]1CCC(F)(F)CN1C(=O)c1nc(Nc2cc(CF)ccn2)ccc1C` [Compound 28, (R)—N-((5,5-difluoro-1-(6-((4-(fluoromethyl)pyridin-2-yl)amino)-3-methylpyridine-2-carbonyl)piperidin-2-yl)methyl)acetamide], the IC50 was 9.4 nM in test [5], 1260 nM in test [1] and 133 nM in test [3] (setting [6]).

With `Cc1ccc(Nc2cc(OC(F)(F)F)ccn2)nc1C(=O)N1CC(F)(F)CCC1C(=O)N1CCCC1` (centres unmarked) [Compound 47, (5,5-Difluoro-1-(3-methyl-6-((4-(trifluoromethoxy)pyridin-2-yl)amino)pyridine-2-carbonyl)piperidin-2-yl)(pyrrolidin-1-yl)methanone], the values for the IC50 in test [5], in test [1] and in test [3] (setting [6]) were 119 nM, 844 nM and 938 nM, respectively.

As for `Cc1ccc(Nc2cc(OC(F)(F)F)ccn2)nc1C(=O)N1CC(F)(F)CC[C@@H]1CN1CCCC1=O` [Compound 48, (R)-1-((5,5-difluoro-1-(3-methyl-6-((4-(trifluoromethoxy)pyridin-2-yl)amino)pyridine-2-carbonyl)piperidin-2-yl)methyl)pyrrolidinone-2-one], the IC50 in test [5] worked out at 16.4 nM; in test [1] it was 2870 nM; in test [3] (setting [6]), 683 nM.

As to `Cc1ccc(Nc2cc(OC(F)(F)F)ccn2)nc1C(=O)N1CC(F)(F)CC[C@@H]1CNC(=O)C1CC1` [Compound 51, (R)—N-((5,5-difluoro-1-(3-methyl-6-((4-(trifluoromethoxy)pyridin-2-yl)amino)pyridine-2-carbonyl)piperidin-2-yl)methyl)cyclopropanecarboxamide], the IC50 in test [5] worked out at 7.7 nM; in test [1], 1270 nM; in test [3] (setting [6]) it was 112 nM.

For the compound `COC(=O)c1ccnc(Nc2ccc(C)c(C(=O)N3CC(F)(F)CC[C@@H]3CNC(C)=O)n2)c1` [Compound 56, (R)-2-((6-(2-(acetamidomethyl)-5,5-difluoropiperidine-1-carbonyl)-5-methylpyridin-2-yl)amino)methyl isonicotinate], the IC50 in test [5] stood at 7.7 nM; in test [1], 924 nM; in test [3] (MOLM-13, 16 h), 180 nM; in test [4], 3750 nM.

Regarding `CC(=O)N[C@@H]1C[C@H](Nc2nc(Nc3cc(OC(F)(F)F)ccn3)ccc2C)CC(F)(F)C1` [Compound 60, N-((1R,5S)-3,3-difluoro-5-((3-methyl-6-((4-(trifluoromethoxy)pyridin-2-yl)amino)pyridin-2-yl)amino)cyclohexyl)acetamide], the IC50 in test [5] turned out to be 70.5 nM; in test [1] it was 797 nM; in test [3] (setting [6]), 894 nM.

Consider `CC(=O)NC[C@H]1CCC(F)(F)CN1C(=O)c1nc(Nc2cc(OC(F)(F)F)ccn2)ccc1F` [Compound 64, (R)—N-((5,5-difluoro-1-(3-fluoro-6-((4-(trifluoromethoxy)pyridin-2-yl)amino)pyridine-2-carbonyl)piperidin-2-yl)methyl)acetamide], for which the IC50 stood at 6.3 nM in test [5], 120 nM in test [1] and 120 nM in test [3] (setting [6]).

Take `CC(=O)NC[C@H]1CCC(F)(F)CN1C(=O)c1cccc(Nc2cc(OC(F)(F)F)ccn2)n1` [Compound 80, (R)—N-((5,5-difluoro-1-(6-((4-(trifluoromethoxy)pyridin-2-yl)amino)pyridine-2-carbonyl)piperidin-2-yl)methyl)acetamide]: the IC50 in test [5] was 7.2 nM; in test [1], 258 nM; in test [3] (setting [6]) it was 198 nM.

`CC(=O)NC[C@H]1CCC(F)(F)CN1C(=O)c1nc(Nc2cc(OC(F)(F)F)ccn2)ccc1Cl` [Compound 84, (R)—N-((1-(3-chloro-6-((4-(trifluoromethoxy)pyridin-2-yl)amino)pyridine-2-carbonyl)-5,5-difluoropiperidin-2-yl)methyl)acetamide]: the IC50 in test [5] turned out to be 6.2 nM; in test [1], 577 nM; in test [3] (MOLM-13, 16 h) it was 58.6 nM.
